Experimental data taken from patent US11440907B1 (Merck Patent GmbH, priority 2018, dated 2022).

Tested on: XBP1(u)-luciferase splicing reporter in HepG2 hepatoma cells
Test: HepG2 XBP1 reporter assay (XBP1(u)-Luc)
Type: cell-based
Conditions: Homo sapiens
Source text: HepG2 XBP1 Reporter Assay
HepG2 hepatoma cells were transduced with a retrovirus encoding the cDNA for unspliced (u) XBP1, which contains a non-processed intron, fused to the cDNA for firefly luciferase. Upon induction of ER stress, the non-processed intron of XBP1(u) is spliced out by active IRE1alpha endonuclease. The resulting spliced (s) XBP1 is now in frame with luciferase which causes the production of active luciferase protein, resulting in bioluminescence
HepG2 XBP1(u)-Luc cells were plated […] Cultured cells with a stably transfected reporter construct were plated at approximately 30,000 cells per well into 96 well multi-well plates for twenty four hours. The testing compounds were then added to the wells in 3-fold serial dilutions using a twenty seven micromolar top concentration. A series of control wells for each cell type received only compound solvent. Six hours after the addition of compound, reporter activity for luciferase was assayed, by addition of the SteadyGlo luminescence reagent (Promega). The reporter luminescence activity was measured using Pherastar plate reader (BMG Labtech). Readings was normalized to DMSO only treated cells, and normalized activities were then used in the IC50 calculations. The HepG2 XBP1 reporter assay data are summarized in Tables 3-5: A<0.6 μM; 0.6 μM≤B<2.0 μM; 2.0 μM≤C<5.0 μM; D≥5.0 μM.

[1] = 6 h, six hours after addition of compound
[2] = 6 hours after compound addition, Table 4

SMILES | IC50 [1] [nM] | IC50 [2] [nM]
COc1cc(C2COCCCN2c2nc(C)nc(N)n2)c(Cl)cc1N1CCCCC1 (stereo not shown) [C-101] | – | 600 to 2000
COc1cc(Cl)c([C@H]2COCCCN2c2cc(C)nc(N)n2)cc1OC [C-80] | – | < 600
CCOc1cc(Cl)c([C@H]2COCCCN2c2cc(C)nc(N)n2)cc1Cl [C-117] | – | < 600
Nc1nccc(N2CCCOC[C@@H]2c2cc3c(cc2Cl)OCCCO3)n1 [C-72] | – | < 600
Cc1cc(N2CCCOCC2c2cc(Cl)c(F)cc2Cl)nc(N)n1 (stereo not shown) [C-100] | – | 2000 to 5000
Cc1cc(N2CCCOC[C@@H]2c2cc(F)c(N3CCC(C)(O)CC3)cc2Cl)nc(N)n1 [C-125] | – | 600 to 2000
Cc1cc(N2CCCOCC2c2cc(C)c(N3CCCC3)cc2Cl)nc(N)n1 (stereo not shown) [C-112] | – | 600 to 2000
CSCOc1ccc([C@@H]2COCCCN2c2cc(C)nc(N)n2)c(Cl)c1 [C-122, 4-[(R)-3-(2-Chloro-4-methylsulfanylmethoxy-phenyl)-[1,4]oxazepan-4-yl]-6-methyl-pyrimidin-2-ylamine] | – | < 600
CCOC(=O)[C@H](C)Oc1cc(Cl)c([C@@H]2COCCCN2c2cc(C)nc(N)n2)cc1OC [C-149] | – | 2000 to 5000
Cc1cc(N2CCCOCC2c2cc3c(cc2Cl)OCC2(CC2)CO3)nc(N)n1 (stereo not shown) [C-90] | – | < 600
COc1cc([C@H]2COCCCN2c2cc(C)nc(N)n2)c(Cl)cc1O [C-78] | – | < 600
CSCOc1ccc(C2COCCCN2c2cc(C)nc(N)n2)c(Cl)c1 (stereo not shown) [C-105, 4-[3-(2-Chloro-4-methylsulfanylmethoxy-phenyl)-[1,4]oxazepan-4-yl]-6-methyl-pyrimidin-2-ylamine] | – | < 600
COc1cc(Cl)c(C2COCCCN2c2cc(C)nc(N)n2)cc1C (stereo not shown) [C-99] | – | 600 to 2000
C=CCOc1cc(Cl)c(C2COCCCN2c2cc(C)nc(N)n2)cc1OC (stereo not shown) [C-45] | – | 600 to 2000
Cc1cc(N2C[C@H](C)COC[C@H]2c2ccc(CS(C)(=O)=O)cc2Cl)nc(N)n1 [C-139] | – | ≥ 5000

Second part, the compound after the results:

IC50 [1] [nM] | IC50 [2] [nM] | SMILES
600 to 2000 | – | Cc1cc(N2CCCOC[C@H]2c2cc3c(cc2Cl)NC[C@@](C)(C(=O)OC(C)C)O3)nc(N)n1 [D-128]
< 600 | – | Cc1cc(N2CCCOC[C@@H]2c2cc3c(cc2Cl)NC[C@@](C)(C(=O)NCCO)O3)nc(N)n1 [D-133]
600 to 2000 | – | Cc1cc(N2CCCOCC2c2cc(O)c(NC(=O)CC(C)(C)O)cc2Cl)nc(N)n1 [D-100]
600 to 2000 | – | CCCC(=O)Nc1ccc(C2COCCCN2c2cc(C)nc(N)n2)c(Cl)c1 [D-95]
≥ 5000 | – | Cc1cc(N2CCCOC[C@H]2c2cc(O)c(C(=O)NC3CC3)cc2Cl)nc(N)n1 [D-186]
< 600 | – | Cc1cc(N2CCCOC[C@@H]2c2ccc([C@H]3CCCN3)cc2Cl)nc(N)n1 [D-90]
≥ 5000 | – | Cc1cc(N2CCCOC[C@H]2c2ncc(CS(C)(=O)=O)cc2Cl)nc(N)n1 [D-167]
< 600 | – | CCC(=O)Nc1cc(Cl)c(C2COCCCN2c2cc(C)nc(N)n2)cc1O [D-97]
≥ 5000 | – | Cc1cc(N2CCCOC[C@H]2c2ccc(C3CCN(C4COC4)CC3)cc2Cl)nc(N)n1 [D-163]
≥ 5000 | – | CCc1cc(N2CCCOC[C@H]2c2ccc(OS(C)(=O)=O)cc2Cl)nc(N)n1 [D-162]
2000 to 5000 | – | Cc1cc(N2CCCOC[C@H]2c2ccc([C@@H]3CCCN3)cc2Cl)nc(N)n1 [D-88]
2000 to 5000 | – | Cc1cc(N2CCCOC[C@@H]2c2ccc(NC(=O)C3(F)CCOC3)cc2Cl)nc(N)n1 (stereo partly drawn) [D-62]
≥ 5000 | – | CCOC(=O)c1cc(Cl)c(C2COCCCN2c2cc(C)nc(N)n2)cc1C#N [D-134]
600 to 2000 | – | CNC(=O)c1cc(Cl)c(C2COCCCN2c2cc(C)nc(N)n2)cc1O [D-118]
≥ 5000 | – | Cc1cc(N2CCCOC[C@H]2c2cc3c(cc2Cl)NC[C@@](C)(C(=O)O)O3)nc(N)n1 [D-114]
≥ 5000 | – | Cc1cc(N2CCCOC[C@H]2c2cc(CN)c(C)cc2Cl)nc(N)n1 [D-164]
≥ 5000 | – | Cc1cc(N2CCCOC[C@H]2c2cc(O)c(C(=O)N(C)C)cc2Cl)nc(N)n1 [D-183]
≥ 5000 | – | CNC(=O)c1cc(Cl)c([C@@H]2COCCCN2c2cc(C)nc(N)n2)cc1O [D-182]
600 to 2000 | – | Cc1cc(N2CCCOCC2c2ncc(CS(C)(=O)=O)cc2OC(F)F)nc(N)n1 [D-67]
600 to 2000 | – | Cc1cc(N2CCCOC[C@@H]2c2ccc(N3CCN(C(=O)OC(C)(C)C)CC3)cc2Cl)nc(N)n1 [D-82]
≥ 5000 | – | Cc1cc(N2CCCOC[C@H]2c2cc(N)c(OC(F)(F)F)cc2Cl)nc(N)n1 [D-161]
< 600 | – | Cc1cc(N2CCCOC[C@@H]2c2cc3c(cc2Cl)NC[C@@](C)(C(=O)N2CCOCC2)O3)nc(N)n1 [D-126]
< 600 | – | Cc1cc(N2CCCOC[C@@H]2c2cc(CN)c(C)cc2Cl)nc(N)n1 [D-75]
600 to 2000 | – | Cc1cc(N2CCCOC[C@@H]2c2ccc([C@H](C)S(C)(=O)=O)cc2Cl)nc(N)n1 [D-139]
≥ 5000 | – | Cc1cc(N2CCCOCC2c2ccc3ncnn3c2)nc(N)n1 [D-175]
